According to patent US8981149B2, “Compounds modulating the hedgehog protein signaling pathway, marked forms thereof, and applications” (Centre National De La Recherche Scientifique, priority 2011, dated 2015):
Like-named read-outs stand apart in the source and are kept apart here.

Assays:
PCGs of rat cerebellum = test: Proliferation of granule cell precursors (PCGs) of rat cerebellum induced by SAG, 3H-thymidine incorporation; format: cell-based; settings: for IC50: proliferation induced by SAG (0.01 μM), 3H-thymidine incorporation, read-out: IC50 ± SEM, PCGs of rat cerebellum (3)
Protocol: The granule cell precursors (GCP) are isolated from cerebellums of rats (IFFA-CREDO, France), 8 days after birth (P8). The cerebellums are taken, cut into small pieces, placed in Krebs-Ringer buffer (120 mM NaCl, 5 mM KCl, 1 mM KH2PO4, 25 mM NaHCO3, 15 mM glucose, 0.04 mM phenol red) and incubated for 15 minutes at room temperature in a dissociation buffer composed of Krebs-Ringer with addition of 250 mg/ml of trypsin (Sigma, France). Enzymatic dissociation is stopped by adding an equal volume of Krebs-Ringer buffer containing 250 mg/ml of a trypsin inhibitor and 80 mg/ml of DNase (Sigma, France). The tissue is centrifuged at 100 g for 10 seconds and the pellet obtained is resuspended and triturated using Pasteur pipettes of decreasing diameter to obtain a suspension of isolated cells. This suspension is centrifuged at 200 g for 5 minutes and the pellet obtained is resuspended in Neurobasal medium supplemented with 1 mM of pyruvate, 2 mM L-glutamine, penicillin/streptomycin and 1% of supplement N2, 60 mg/ml N-acetyl cysteine and […] of bovine serum albumin (BSA, Sigma, France).
The cerebellar GCPs obtained are transferred to 96-well plates treated beforehand with poly-D-lysine at a density of 2.10^5 cells/well. SAG in the presence or absence of the other test compounds is added immediately. 12 hours before the end of culture, tritiated thymidine (^3H-thymidine) is added. The cells are aspirated and recovered on a glass fiber filter (GF/C) using an automated cell collector (Brandel, USA). The amount of radioactivity incorporated by the cells was quantified in the presence of a scintillating agent in a liquid scintillation counter (Wallac, USA).
The cerebellar PCGs proliferate in response to activation of the Shh signalling pathway, a response that can be inhibited by the Smo antagonists (Rohatgi et al., 2009, Proc. Natl. Acad. Sci. USA 106: 3196-201). We therefore analyzed the capacity of compound (7d) for inhibiting the proliferation of the PCGs of rat cerebellum in primary culture by measuring the incorporation of tritiated thymidine, a marker of DNA newly synthesized during the proliferation process.

human Smo receptor = target: T1, human Smo receptor (Homo sapiens, UniProt Q99835); test: Competition with bodipy-cyclopamine (BC) binding in HEK-hSmo cells
T1 construct: expressed in transfected cells
Protocol: Cells of the HEK293 line stably transfected with the human Smo receptor are used. The experiment was conducted according to the protocol described in Roudaut et al., Mol. Pharmacol. 79: 453-460, 2011.
At the end of the incubation, the cells are fixed and stained with DAPI, a fluorescent molecule with high affinity for DNA which makes it possible to visualize the nuclei in blue in fluorescence microscopy.

[1] = target: T2, human Smoothened receptor (Homo sapiens, UniProt Q99835); test: Saturation of binding of 3H-(7d) to membranes of HEK-hSmo cells; settings: read-out: Kd of specific binding
T2 construct: expressed in transfected cells
Protocol: The binding test is carried out on membranes enriched with Smoothened receptor. Cells of the HEK-hSmo line were used for preparing these membranes. The cells are washed and recovered in iced PBS. After centrifugation at 100 g for 7 minutes at 4° C., the pellet is taken up in 10 times its volume of an iced buffer A (50 mM HEPES, pH 7.4, 1 mM EDTA) with addition of 10 μl of a cocktail of protease inhibitors (PEAK, Sigma) per ml of buffer, then it is homogenized using a Polytron grinding mill. After centrifugation at 500 g for 30 minutes at 4° C., which makes it possible to remove the nuclei from the cells, the supernatant is centrifuged again at 48 000 g for 45 min at 4° C. The pellet is taken up in 2 ml of buffer A with PEAK added, then the suspension is homogenized using a glass conical grinding mill and is passed through a 23 G needle. Finally, aliquots are placed in Eppendorf tubes and stored at −80° C. The concentration of total protein in the preparation is determined by Lowry's method using BSA for preparing the standard range. This concentration is 10.9 mg/ml.
The membranes are resuspended in a buffer (50 mM HEPES and 3 mM MgCl2) containing 0.2% of BSA. The tests of binding of ^3H-(7d) are carried out in polypropylene tubes. […] The radioactivity retained on the filter is measured in the presence of 3 ml of scintillating agent in a liquid scintillation counter. […]

T1 sequence (Q99835 28-787): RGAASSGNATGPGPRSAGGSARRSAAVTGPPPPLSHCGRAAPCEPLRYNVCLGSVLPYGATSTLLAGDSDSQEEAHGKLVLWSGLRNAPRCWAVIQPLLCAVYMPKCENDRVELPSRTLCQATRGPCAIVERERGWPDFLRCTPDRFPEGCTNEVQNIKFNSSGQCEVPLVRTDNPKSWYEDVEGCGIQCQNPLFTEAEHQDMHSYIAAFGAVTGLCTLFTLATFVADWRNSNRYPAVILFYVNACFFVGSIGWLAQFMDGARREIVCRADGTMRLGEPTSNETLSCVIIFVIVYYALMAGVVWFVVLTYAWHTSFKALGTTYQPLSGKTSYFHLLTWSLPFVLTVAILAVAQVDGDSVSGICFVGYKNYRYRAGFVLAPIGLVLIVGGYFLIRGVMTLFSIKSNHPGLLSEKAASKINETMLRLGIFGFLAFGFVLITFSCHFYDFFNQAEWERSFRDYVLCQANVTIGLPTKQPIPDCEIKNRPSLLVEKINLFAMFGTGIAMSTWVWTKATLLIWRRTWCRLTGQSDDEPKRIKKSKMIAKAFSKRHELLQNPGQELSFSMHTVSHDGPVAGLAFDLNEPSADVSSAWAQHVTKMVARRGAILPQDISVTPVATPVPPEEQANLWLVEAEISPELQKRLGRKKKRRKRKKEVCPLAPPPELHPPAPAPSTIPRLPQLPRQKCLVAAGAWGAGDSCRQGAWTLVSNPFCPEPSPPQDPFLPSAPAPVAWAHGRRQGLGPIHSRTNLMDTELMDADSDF
T2 sequence (Q99835 28-787): as above

- Block of the binding of BC to HEK-hSmo cells, in words (human Smo receptor; BC 5 nM, 2 hours): very similar and high
- IC50 (human Smo receptor; bodipy-cyclopamine (5 nM), HEK-hSmo cells, read-out: IC50 ± SEM, BC binding (4)): 8 ± 1 nM
- Kd [1]: 0.3 nM
Compound: COc1cc(C(=O)NC(=N)Nc2ccc(C)c(NC(=O)c3ccc(CCc4ccccc4)cc3)c2)cc(OC)c1OC.Cl [Compound 7d, 3,4,5-trimethoxy-N—(N-(4-methyl-3-(4-phenethylbenzamido)phenyl)carbamimidoyl)benzamide hydrochloride]
- IC50 (PCGs of rat cerebellum; Rattus norvegicus): 0.45 nM
- Type of antagonism on proliferation of PCGs (PCGs of rat cerebellum; induced by SAG (0.01 μM)): complete antagonist
- IC50 (PCGs of rat cerebellum; hydrochloride): 0.4 ± 0.1 nM
